These results are taken from patent US20250243203A1, “NICOTINAMIDE- AND BENZAMIDE-BASED COMPOUNDS, CONJUGATES, AND COMPOSITIONS AS INHIBITORS OF TRANSLATIONAL- AND TRANSCRIPTIONAL-RELATED KINASES” (PURDUE RESEARCH FOUNDATION, priority 2022, published 2025).

The target of assay [1] is p70S6K (Homo sapiens, UniProt P23443). As to the kind of experiment: p70S6K inhibition, in vitro studies at Reaction Biology Corporation. Particulars: 25 nM compound, [ATP]=10 uM. It is filed as biochemical. As to the method:
The nature of the substituent on the imidazo[1,2-b]pyridazine moiety at position-6 was evaluated in in vitro studies performed at Reaction Biology Corporation (Malvern, PA). The results indicated the specific substituent dramatically affected the inhibition of p70S6K.

The target in assay [2] is T1, AXL receptor tyrosine kinase (AXL) (Homo sapiens, UniProt P30530).
T1 construct: purchased Eurofins DiscoverX (KINOMEscan service)
T1 sequence (P30530 26-894): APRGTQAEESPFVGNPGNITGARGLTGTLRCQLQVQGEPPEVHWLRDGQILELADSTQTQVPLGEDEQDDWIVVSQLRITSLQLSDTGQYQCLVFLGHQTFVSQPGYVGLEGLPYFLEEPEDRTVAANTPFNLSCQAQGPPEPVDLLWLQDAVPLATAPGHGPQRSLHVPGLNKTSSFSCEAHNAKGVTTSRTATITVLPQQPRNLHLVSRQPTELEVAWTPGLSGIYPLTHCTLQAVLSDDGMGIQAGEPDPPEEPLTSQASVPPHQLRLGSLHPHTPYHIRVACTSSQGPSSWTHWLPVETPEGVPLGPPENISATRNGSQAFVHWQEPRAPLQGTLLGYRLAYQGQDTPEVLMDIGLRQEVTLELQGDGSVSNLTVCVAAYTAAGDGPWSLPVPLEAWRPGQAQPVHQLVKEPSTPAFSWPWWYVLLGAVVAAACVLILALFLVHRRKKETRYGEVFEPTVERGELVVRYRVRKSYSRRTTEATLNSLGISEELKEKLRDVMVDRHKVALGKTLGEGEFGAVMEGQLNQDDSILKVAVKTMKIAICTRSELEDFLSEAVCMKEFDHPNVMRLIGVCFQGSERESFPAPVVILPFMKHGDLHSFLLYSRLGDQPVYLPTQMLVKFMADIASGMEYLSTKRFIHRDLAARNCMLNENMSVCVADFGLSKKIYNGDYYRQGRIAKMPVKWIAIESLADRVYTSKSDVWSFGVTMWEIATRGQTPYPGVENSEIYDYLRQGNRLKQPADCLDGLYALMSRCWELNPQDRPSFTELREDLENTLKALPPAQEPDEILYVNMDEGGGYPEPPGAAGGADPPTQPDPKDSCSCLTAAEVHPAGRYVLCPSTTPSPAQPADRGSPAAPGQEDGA
As to the kind of experiment: KINOMEscan competition binding assay (Eurofins DiscoverX), AXL. Here is the method:
The affinity of several compounds hereof having a substituent on the imidazo[1,2-b]pyridazine moiety at position-6, wherein the substituent comprised one or more ring moieties was evaluated with respect to two TAM kinases: AXL and MERTK. […] The assay uses DNA-tagged kinase, an immobilized ligand, and the test compound. Quantitative polymerase chain reaction (PCR) of the DNT tag was then used to measure the ability of the tested compound to displace the immobilized ligand.

Assay [3] concerns the target T2, MER Proto-Oncogene tyrosine kinase (MERTK) (Homo sapiens, UniProt Q12866).
T2 construct: purchased Eurofins DiscoverX (KINOMEscan service)
T2 sequence (Q12866 21-999): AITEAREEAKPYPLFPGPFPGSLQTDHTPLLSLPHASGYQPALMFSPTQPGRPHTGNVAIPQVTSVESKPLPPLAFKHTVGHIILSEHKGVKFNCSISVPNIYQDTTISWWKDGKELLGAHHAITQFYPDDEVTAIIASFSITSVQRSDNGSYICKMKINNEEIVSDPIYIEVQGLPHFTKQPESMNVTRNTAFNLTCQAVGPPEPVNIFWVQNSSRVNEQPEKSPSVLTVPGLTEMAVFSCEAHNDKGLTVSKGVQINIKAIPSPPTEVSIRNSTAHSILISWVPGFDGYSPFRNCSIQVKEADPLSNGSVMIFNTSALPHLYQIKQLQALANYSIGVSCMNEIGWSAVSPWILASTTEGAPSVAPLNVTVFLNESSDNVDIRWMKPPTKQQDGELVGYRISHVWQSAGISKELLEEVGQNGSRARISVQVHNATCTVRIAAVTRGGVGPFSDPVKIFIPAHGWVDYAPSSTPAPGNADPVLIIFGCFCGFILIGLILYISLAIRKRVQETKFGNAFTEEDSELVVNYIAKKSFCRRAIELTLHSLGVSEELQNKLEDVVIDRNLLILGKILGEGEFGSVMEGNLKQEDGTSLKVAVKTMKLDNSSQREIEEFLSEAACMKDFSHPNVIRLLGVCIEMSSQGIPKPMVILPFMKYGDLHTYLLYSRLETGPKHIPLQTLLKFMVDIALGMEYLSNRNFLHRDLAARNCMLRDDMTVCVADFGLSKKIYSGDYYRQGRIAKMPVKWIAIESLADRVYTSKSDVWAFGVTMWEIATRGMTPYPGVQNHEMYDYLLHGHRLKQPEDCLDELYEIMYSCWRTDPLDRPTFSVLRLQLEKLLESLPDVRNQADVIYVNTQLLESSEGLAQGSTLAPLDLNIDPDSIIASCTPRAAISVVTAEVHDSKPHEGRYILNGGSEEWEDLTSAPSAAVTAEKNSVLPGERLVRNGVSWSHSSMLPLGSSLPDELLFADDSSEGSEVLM
As to the kind of experiment: KINOMEscan competition binding assay (Eurofins DiscoverX), MERTK. As to the method: The affinity of several compounds hereof having a substituent on the imidazo[1,2-b]pyridazine moiety at position-6, wherein the substituent comprised one or more ring moieties was evaluated with respect to two TAM kinases: AXL and MERTK. Perhaps more specifically, the equilibrium dissociation constant between each of compounds HSND141, compound HSND149, HSND150, HSND151, and HSND80 and AXL and MERTK was evaluated at Eurofins DiscoverX using KINOMEscan™, which is a competition binding assay that quantitively measured the ability of each tested compound to displace an immobilized, active-site directed ligand. The assay uses DNA-tagged kinase, an immobilized ligand, and the test compound. Quantitative polymerase chain reaction (PCR) of the DNT tag was then used to measure the ability of the tested compound to displace the immobilized ligand.

Assay [4] concerns Caki-1 (renal cancer). Put plainly: Growth inhibition of Caki-1 (NCI-60 human tumor cell line screen). The assay is classed as cell-based. To be noted: 200 nM.
For assay [5], the system named is CT-26 C2 tumor cells. As to the kind of experiment: CT-26 in vivo tumor reduction. Also noted: species or system BALB/c female mouse. To be noted: CT-26, day 17 from start of dosing, oral QD. As to the method:
Each BALB/c female mouse was inoculated subcutaneously at the right flank with CT-26 C2 tumor cells (0.3×10^6/mouse) in 0.1 mL PBS for tumor development. Treatments for the efficacy study were started on day 10 after tumor inoculation when the average tumor size reached approximately 71 mm^3. Each group consisted of 6 tumor-bearing mice. Vehicle control was 25 mM citrate buffer (pH 2.5). HSND80 was dosed orally QD at 15 mg/Kg for 4 days and 10 mg/Kg afterwards. HSND100 was dosed at 15 mg/Kg. Mice were dosed 5 days on and 2 days off (drug holiday). Tumors were measured every other day (L, W, H) to give tumor volume in mm^3.

Like-named read-outs stand apart in the source and are kept apart here.

p70S6K, sequence (P23443 whole entry): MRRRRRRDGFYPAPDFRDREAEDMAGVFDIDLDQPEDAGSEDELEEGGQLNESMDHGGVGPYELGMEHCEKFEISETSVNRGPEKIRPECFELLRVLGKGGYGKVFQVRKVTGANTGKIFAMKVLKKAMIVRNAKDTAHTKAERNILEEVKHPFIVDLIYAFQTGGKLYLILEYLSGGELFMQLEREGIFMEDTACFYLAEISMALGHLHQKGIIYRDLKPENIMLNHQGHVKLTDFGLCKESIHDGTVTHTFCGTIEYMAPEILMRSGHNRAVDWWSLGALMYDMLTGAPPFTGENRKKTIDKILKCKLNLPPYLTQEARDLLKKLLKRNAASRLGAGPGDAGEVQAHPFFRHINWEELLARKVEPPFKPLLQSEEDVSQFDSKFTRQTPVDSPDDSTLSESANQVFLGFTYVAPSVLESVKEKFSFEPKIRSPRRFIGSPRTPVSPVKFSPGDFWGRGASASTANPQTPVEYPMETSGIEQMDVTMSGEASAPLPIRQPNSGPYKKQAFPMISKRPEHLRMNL

What is called Kd is the free concentration of one partner at which half of the binding sites on the other are occupied at equilibrium, for simple one-to-one binding. As usually defined, the inhibition is the percentage by which the read-out fell short of the control. With `C[C@@H]1CN(c2ccc3ncc(C#Cc4cncc(C(=O)Nc5ccc(CN6CCN(C)CC6)c(C(F)(F)F)c5)c4)n3n2)C[C@H](C)O1` [HSND80, 5-((6-((2S,6R)-2,6-Dimethylmorpholino)imidazo[1,2-b]pyridazin-3-yl)ethynyl)-N-(4-((4-methylpiperazin-1-yl)methyl)-3-(trifluoromethyl)phenyl)nicotinamide], the “inhibition of p70S6K” value in assay [1] is 97%. Also, the Kd in assay [2] (FIG. 6A, replicate 1, read-out: Kd AXL, replicate 1) was 0.77 nM; in assay [2] (FIG. 6B, replicate 2, read-out: Kd AXL, replicate 2) it was 1.3 nM; in assay [2] (Table 1, DiscoverX Eurofins, read-out: Kd AXL), 1.1 nM; in assay [3] (FIG. 7A, replicate 1, read-out: Kd MERTK, replicate 1), 1.6 nM; in assay [3] (FIG. 7B, replicate 2, read-out: Kd MERTK, replicate 2) it was 2.1 nM; in assay [3] (Table 1, DiscoverX Eurofins, read-out: Kd MERTK) it was below 0.17 nM. Testing at 0.2 µM in assay [4] gave an inhibition of 100%. The “tumor reduction compared to vehicle control” value in assay [5] was 45%.
